The values that follow come from patent US20090306050A1, “TREATMENT AND PREVENTION OF DEPRESSION WITH PAIN, DEPRESSION SECONDARY TO PAIN, AND OF NEUROPATHIC PAIN” (priority 2006, published 2009).

One series has as its system ECG interval. As to conditions: rats infused with the antidepressant; cited from earlier work.
The next series has as its system neuropathic pain. As to conditions: in vivo; cited from earlier work.
For series [1] the following is noted: fatal poisoning/overdose, Scotland, England and Wales; cited from earlier work.
Another series concerns severe neuropathic pain. The series is described as follows: Example 2: diabetic clinic patients with severe neuropathic pain. It counts as in vivo. From the text:
Four patients at a diabetic clinic present with severe neuropathic pain. Conventional analgesics are of no benefit.

In a further series the test system is NA and 5HT reuptake. The series is described as follows: NA versus 5HT reuptake selectivity from comparative Ki's (Bolden-Watson and Richelson). It counts as biochemical. From the text: There are a number of ways in which the ratio of NA to 5HT reuptake in antidepressant molecules may be measured. The selectivity a drug for various receptors may be compared by use of comparative Ki's and not comparative IC 50 values. (Bolden-Watson, C and Richelson, E., Life Sci, (52), 1993, 1023-1029), which is hereby incorporated by reference.

The next series has as its target D2 receptor (Homo sapiens, UniProt P14416). The series is described as follows: activity at the dopamine D2 receptor.
The test system of series [2] is major depression with aches and pains. The series is described as follows: Example 1: patients with major depression and multiple aches and pains. It counts as in vivo. As to conditions: three patients, commenced 70 mg twice daily, final 140mg to 280mg daily. The protocol:
Three patients who fulfilled criteria for major depression present with multiple aches and pains for which there is no obvious physical cause. […] The final dose of medication ranges from 140mg daily to 280mg daily.

A further series relates to serotonin synthesis. Nature of the series: serotonin synthesis in the brain. As to conditions: in vivo.
Another series in a line: sedation. As to conditions: in vivo.

Structures are written as SMILES.

Chain of D2 receptor (P14416 whole entry): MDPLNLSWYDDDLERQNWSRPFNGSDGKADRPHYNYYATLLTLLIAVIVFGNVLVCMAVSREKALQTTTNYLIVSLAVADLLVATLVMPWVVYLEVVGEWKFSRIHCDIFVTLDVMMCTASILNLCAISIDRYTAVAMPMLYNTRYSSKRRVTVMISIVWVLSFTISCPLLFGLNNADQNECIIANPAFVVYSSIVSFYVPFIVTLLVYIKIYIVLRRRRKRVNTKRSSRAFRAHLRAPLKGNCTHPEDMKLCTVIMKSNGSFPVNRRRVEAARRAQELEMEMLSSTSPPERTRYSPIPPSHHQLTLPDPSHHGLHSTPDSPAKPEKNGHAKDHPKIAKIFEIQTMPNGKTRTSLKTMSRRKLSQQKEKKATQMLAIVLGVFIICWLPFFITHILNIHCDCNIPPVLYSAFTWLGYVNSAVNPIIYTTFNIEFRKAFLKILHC

As for `CN(C)CCC=C1c2ccccc2CCc2ccccc21` [amitriptyline], the “prolongation of the ECG interval” value in the series with ECG interval is “prolong the ECG interval”.
With `CC(NC(C)(C)C)C(=O)c1cccc(Cl)c1` (centres unmarked) [buproprion], in the series with neuropathic pain, the “effectiveness in neuropathic pain” value is listed as “has not been found to be effective”.
Consider `CNCCCN1c2ccccc2CCc2ccccc21` [desipramine], for which, in [1], the “fatalities per million prescriptions” value is recorded as 200.9 per million prescriptions. In the series on ECG interval, the “prolongation of the ECG interval” value is “prolong the ECG interval”.
Turning to `CNCC[C@H](Oc1cccc2ccccc12)c1cccs1` [duloxetine], in the series with severe neuropathic pain (four diabetic patients, prescribed before lofepramine), the “response of neuropathic pain to prior treatment” value is given as “failed to respond”.
Regarding `CN(C)CCCN1c2ccccc2CCc2ccccc21` [imipramine], the “prolongation of the ECG interval” value with ECG interval is recorded as “prolong the ECG interval”.
For `CN(CCCN1c2ccccc2CCc2ccccc21)CC(=O)c1ccc(Cl)cc1` [lofepramine], in the series with NA and 5HT reuptake, the “NA:5HT ratio relative to desipramine” value is listed as “about four times that of desipramine” and the “NE: 5-HT ratio relative to milnacipran” value was “higher than that of milnacipran”. Besides, at D2 receptor, the “activity at the D2 receptor” value is reported as “potent activity”. Besides, the “improvement in symptoms including pain” value in [2] is listed as “All three show improvement in all symptoms including pain within four weeks”. In addition, the “relief of neuropathic pain” value with severe neuropathic pain (four diabetic patients, 70 mg tds, after failure of analgesics and duloxetine) is recorded as “dramatic relief of pain in 3 of the 4 cases”. In addition, the “response after escalation of the dose” value in the series on severe neuropathic pain (patient 4, escalated dose) is listed as “results in improvement”. Further, the “effect on serotonin synthesis in the brain” value in the series on serotonin synthesis is listed as “up-regulate serotonin synthesis in the brain”. Further, the induction of sedation result in “sedation” is “does not induce sedation”. The “fatalities per million prescriptions” value in series [1] was 1.3 per million prescriptions. In addition, the “prolongation of the ECG interval” value in the series on ECG interval is “does not”.
Regarding `COc1ccc(C(CN(C)C)C2(O)CCCCC2)cc1` (centres unmarked) [venlafaxine], the “fatalities per million prescriptions” value in [1] is recorded as 13.2 per million prescriptions.
